Measured values: publication PMC6208650

Experiment: on-resin lactamisation, Asp side-chain COOH (C-terminal residue, anchored via Rink amide) + alpha-NH2 of N-terminal Dap(Boc); HATU/DIEA 1.05:2.1 equiv, overnight; then TFA cleavage
Details: 22-membered ring, NMP, 57.0 mM; for ring closure, product found: scale: 1 = cyclic product is largest ESI-MS signal, 0 = linear; for ring closure, conversion by HPLC: scale: % crude HPLC purity, 320 nm area of tallest peak or peak cluster
[1] = from CC(C)(C)OC(=O)NC[C@H](N)C(=O)N[C@@H](CNC(=O)c1cnc2ccccc2n1)C(=O)NCC(=O)NCC(=O)N[C@@H](CNC(=O)c1cnc2ccccc2n1)C(=O)NCC(=O)N[C@@H](CC(=O)O)C(N)=O
[2] = from CC(C)(C)OC(=O)NC[C@H](N)C(=O)NCC(=O)NCC(=O)N[C@@H](CNC(=O)c1cnc2ccccc2n1)C(=O)N[C@@H](CNC(=O)c1cnc2ccccc2n1)C(=O)N[C@@H](CNC(=O)c1cnc2ccccc2n1)C(=O)N[C@@H](CC(=O)O)C(N)=O
[3] = from CC(C)(C)OC(=O)NC[C@H](N)C(=O)NCC(=O)NCC(=O)N[C@@H](CNC(=O)c1cnc2ccccc2n1)C(=O)NCC(=O)N[C@@H](CNC(=O)c1cnc2ccccc2n1)C(=O)N[C@@H](CC(=O)O)C(N)=O
[4] = from CC(C)(C)OC(=O)NC[C@H](N)C(=O)NCC(=O)N[C@@H](CNC(=O)c1cnc2ccccc2n1)C(=O)NCC(=O)NCC(=O)N[C@@H](CNC(=O)c1cnc2ccccc2n1)C(=O)N[C@@H](CC(=O)O)C(N)=O
[5] = from CC(C)(C)OC(=O)NC[C@H](N)C(=O)NCC(=O)N[C@@H](CNC(=O)c1cnc2ccccc2n1)C(=O)N[C@@H](CNC(=O)c1cnc2ccccc2n1)C(=O)N[C@@H](CNC(=O)c1cnc2ccccc2n1)C(=O)NCC(=O)N[C@@H](CC(=O)O)C(N)=O
[6] = from CC(C)(C)OC(=O)NC[C@H](N)C(=O)NCC(=O)N[C@@H](CNC(=O)c1cnc2ccccc2n1)C(=O)NCC(=O)N[C@@H](CNC(=O)c1cnc2ccccc2n1)C(=O)N[C@@H](CNC(=O)c1cnc2ccccc2n1)C(=O)N[C@@H](CC(=O)O)C(N)=O
[7] = from CC(C)(C)OC(=O)NC[C@H](N)C(=O)NCC(=O)NCC(=O)NCC(=O)N[C@@H](CNC(=O)c1cnc2ccccc2n1)C(=O)N[C@@H](CNC(=O)c1cnc2ccccc2n1)C(=O)N[C@@H](CC(=O)O)C(N)=O
[8] = from CC(C)(C)OC(=O)NC[C@H](N)C(=O)N[C@@H](CNC(=O)c1cnc2ccccc2n1)C(=O)NCC(=O)N[C@@H](CNC(=O)c1cnc2ccccc2n1)C(=O)NCC(=O)N[C@@H](CNC(=O)c1cnc2ccccc2n1)C(=O)N[C@@H](CC(=O)O)C(N)=O
[9] = from CC(C)(C)OC(=O)NC[C@H](N)C(=O)N[C@@H](CNC(=O)c1cnc2ccccc2n1)C(=O)N[C@@H](CNC(=O)c1cnc2ccccc2n1)C(=O)NCC(=O)NCC(=O)N[C@@H](CNC(=O)c1cnc2ccccc2n1)C(=O)N[C@@H](CC(=O)O)C(N)=O
[10] = from CC(C)(C)OC(=O)NC[C@H](N)C(=O)NCC(=O)N[C@@H](CNC(=O)c1cnc2ccccc2n1)C(=O)N[C@@H](CNC(=O)c1cnc2ccccc2n1)C(=O)NCC(=O)N[C@@H](CNC(=O)c1cnc2ccccc2n1)C(=O)N[C@@H](CC(=O)O)C(N)=O
[11] = from CC(C)(C)OC(=O)NC[C@H](N)C(=O)NCC(=O)N[C@@H](CNC(=O)c1cnc2ccccc2n1)C(=O)N[C@@H](CNC(=O)c1cnc2ccccc2n1)C(=O)NCC(=O)NCC(=O)N[C@@H](CC(=O)O)C(N)=O

NC[C@@H]1NC(=O)C[C@@H](C(N)=O)NC(=O)CNC(=O)[C@H](CNC(=O)c2cnc3ccccc3n2)NC(=O)CNC(=O)CNC(=O)[C@H](CNC(=O)c2cnc3ccccc3n2)NC1=O
ring closure, product found [1]: 1
ring closure, conversion by HPLC [1]: 53

NC[C@@H]1NC(=O)C[C@@H](C(N)=O)NC(=O)[C@H](CNC(=O)c2cnc3ccccc3n2)NC(=O)[C@H](CNC(=O)c2cnc3ccccc3n2)NC(=O)[C@H](CNC(=O)c2cnc3ccccc3n2)NC(=O)CNC(=O)CNC1=O
ring closure, product found [2]: 0
ring closure, conversion by HPLC [2]: < 48

NC[C@@H]1NC(=O)C[C@@H](C(N)=O)NC(=O)[C@H](CNC(=O)c2cnc3ccccc3n2)NC(=O)CNC(=O)[C@H](CNC(=O)c2cnc3ccccc3n2)NC(=O)CNC(=O)CNC1=O
ring closure, product found [3]: 1
ring closure, conversion by HPLC [3]: 76

NC[C@@H]1NC(=O)C[C@@H](C(N)=O)NC(=O)[C@H](CNC(=O)c2cnc3ccccc3n2)NC(=O)CNC(=O)CNC(=O)[C@H](CNC(=O)c2cnc3ccccc3n2)NC(=O)CNC1=O
ring closure, product found [4]: 1
ring closure, conversion by HPLC [4]: 56

NC[C@@H]1NC(=O)C[C@@H](C(N)=O)NC(=O)CNC(=O)[C@H](CNC(=O)c2cnc3ccccc3n2)NC(=O)[C@H](CNC(=O)c2cnc3ccccc3n2)NC(=O)[C@H](CNC(=O)c2cnc3ccccc3n2)NC(=O)CNC1=O
ring closure, product found [5]: 1
ring closure, conversion by HPLC [5]: 79

NC[C@@H]1NC(=O)C[C@@H](C(N)=O)NC(=O)[C@H](CNC(=O)c2cnc3ccccc3n2)NC(=O)[C@H](CNC(=O)c2cnc3ccccc3n2)NC(=O)CNC(=O)[C@H](CNC(=O)c2cnc3ccccc3n2)NC(=O)CNC1=O
ring closure, product found [6]: 0
ring closure, conversion by HPLC [6]: < 39

NC[C@@H]1NC(=O)C[C@@H](C(N)=O)NC(=O)[C@H](CNC(=O)c2cnc3ccccc3n2)NC(=O)[C@H](CNC(=O)c2cnc3ccccc3n2)NC(=O)CNC(=O)CNC(=O)CNC1=O
ring closure, product found [7]: 1
ring closure, conversion by HPLC [7]: 75

NC[C@@H]1NC(=O)C[C@@H](C(N)=O)NC(=O)[C@H](CNC(=O)c2cnc3ccccc3n2)NC(=O)CNC(=O)[C@H](CNC(=O)c2cnc3ccccc3n2)NC(=O)CNC(=O)[C@H](CNC(=O)c2cnc3ccccc3n2)NC1=O
ring closure, product found [8]: 1
ring closure, conversion by HPLC [8]: 24

NC[C@@H]1NC(=O)C[C@@H](C(N)=O)NC(=O)[C@H](CNC(=O)c2cnc3ccccc3n2)NC(=O)CNC(=O)CNC(=O)[C@H](CNC(=O)c2cnc3ccccc3n2)NC(=O)[C@H](CNC(=O)c2cnc3ccccc3n2)NC1=O
ring closure, product found [9]: 1
ring closure, conversion by HPLC [9]: 48

NC[C@@H]1NC(=O)C[C@@H](C(N)=O)NC(=O)[C@H](CNC(=O)c2cnc3ccccc3n2)NC(=O)CNC(=O)[C@H](CNC(=O)c2cnc3ccccc3n2)NC(=O)[C@H](CNC(=O)c2cnc3ccccc3n2)NC(=O)CNC1=O
ring closure, product found [10]: 0
ring closure, conversion by HPLC [10]: < 34

NC[C@@H]1NC(=O)C[C@@H](C(N)=O)NC(=O)CNC(=O)CNC(=O)[C@H](CNC(=O)c2cnc3ccccc3n2)NC(=O)[C@H](CNC(=O)c2cnc3ccccc3n2)NC(=O)CNC1=O
ring closure, product found [11]: 1
ring closure, conversion by HPLC [11]: 69
